Experimental data from patent publication US7169805B2 (Nicox S.A., priority 2003, dated 2007).

Columns and labels:
[1] = test system: isolated rabbit thoracic aorta preparations; assay: Vasorelaxing activity in isolated rabbit thoracic aorta rings precontracted with noradrenaline; type: cell-based; settings: for IC50 / Emax: Oryctolagus cuniculus, NA (1 μM) precontracted rings with functional endothelium; for IC50: read-out: IC50 (concentration producing 50% of the maximum relaxation); for Emax: at 100 μM of tested compound, read-out: Emax (maximum efficacy)
Protocol: Male New Zealand rabbits were anaesthetized with thiopental-Na (50 mg/kg, iv), sacrificed by exsanguinations and then the thorax was opened and the aorta dissected. Single ring preparations (4 mm in length) of thoracic aorta were set up in physiological salt solution (PSS) at 37° C. in small organ chambers (5 ml). The composition of PSS was (mM): NaCl 130, NaHCO3 14.9, KH2PO4 1.2, MgSO4 1.2, HEPES 10, […] (95% O2/5% CO2; pH 7.4). Each ring was mounted under 2 g passive tension. Isometric tension was recorded with a Grass transducer (Grass FT03) attached to a BIOPAC MP150 System. Preparations were allowed to equilibrate for 1 h, then contracted submaximally with noradrenaline (NA, 1 μM) and, when the contraction was stable, acetylcholine (ACh, 10 μM) was added. A relaxant response to ACh indicated the presence of a functional endothelium. […] When a stable precontraction was reached, a cumulative concentration-response curve for each of the tested compounds was obtained in the presence of a functional endothelium. Time intervals between different concentrations were based on the time needed to reach a full response. Each arterial ring was exposed to only one combination of inhibitor and the tested compounds. Moreover, the effect of the soluble guanylyl cyclase inhibitor ODQ (1-H-(1,2,4)-oxadiazol (4,3-a)quinoxalin-1-one) on the dilator responses elicited by the compounds was examined preincubating the aortic rings with ODQ (10 μM) for 20 min.
Results are expressed as IC50 value, which is the concentration of the tested compound producing 50% of the maximum relaxation, and as Emax value which is the maximum efficacy at a concentration of 100 μM of the tested compound.
During the experimental period, the plateau obtained with NA was stable without significant spontaneous loss of contraction in the aortic rings.
Furthermore, in experiments performed in presence of ODQ (10 μM), the vasorelaxant responses to all the tested compounds were inhibited.

[2] = given orally; cited from earlier work
SHR rats = assay: Antihypertensive activity in a genetic model of hypertension (SHR rats), arterial pressure; type: in vivo, rat; settings: single oral dose 30 mg/Kg; for Arterial pressure (MAP): 4 hours after treatment; for Reduction of blood pressure vs the control: 4 hrs after treatment
Protocol: (§1) SHR rats were treated orally in a single dose of 30 mg/Kg. After 2 hours the animal were anaesthetized with tiopental-Na; a fluid catheter was inserted in a right carotid artery and connected to a transducer for the homodynamic measurements. 4 hours after the treatment the arterial pressure (MAP, mmHg) was measured.

ACE = target: T1, ACE (Rattus norvegicus, UniProt P47820); assay: Plasma ACE activity of treated SHR rats, spectrophotometric FAPGG hydrolysis; type: in vivo; settings: heparinized plasma of SHR rats after single oral dose 30 mg/Kg, collected at end of experiment
T1 construct: from tissue; host or cells: heparinized plasma of orally treated SHR rats
T1 sequence (P47820 36-1238 limits assumed): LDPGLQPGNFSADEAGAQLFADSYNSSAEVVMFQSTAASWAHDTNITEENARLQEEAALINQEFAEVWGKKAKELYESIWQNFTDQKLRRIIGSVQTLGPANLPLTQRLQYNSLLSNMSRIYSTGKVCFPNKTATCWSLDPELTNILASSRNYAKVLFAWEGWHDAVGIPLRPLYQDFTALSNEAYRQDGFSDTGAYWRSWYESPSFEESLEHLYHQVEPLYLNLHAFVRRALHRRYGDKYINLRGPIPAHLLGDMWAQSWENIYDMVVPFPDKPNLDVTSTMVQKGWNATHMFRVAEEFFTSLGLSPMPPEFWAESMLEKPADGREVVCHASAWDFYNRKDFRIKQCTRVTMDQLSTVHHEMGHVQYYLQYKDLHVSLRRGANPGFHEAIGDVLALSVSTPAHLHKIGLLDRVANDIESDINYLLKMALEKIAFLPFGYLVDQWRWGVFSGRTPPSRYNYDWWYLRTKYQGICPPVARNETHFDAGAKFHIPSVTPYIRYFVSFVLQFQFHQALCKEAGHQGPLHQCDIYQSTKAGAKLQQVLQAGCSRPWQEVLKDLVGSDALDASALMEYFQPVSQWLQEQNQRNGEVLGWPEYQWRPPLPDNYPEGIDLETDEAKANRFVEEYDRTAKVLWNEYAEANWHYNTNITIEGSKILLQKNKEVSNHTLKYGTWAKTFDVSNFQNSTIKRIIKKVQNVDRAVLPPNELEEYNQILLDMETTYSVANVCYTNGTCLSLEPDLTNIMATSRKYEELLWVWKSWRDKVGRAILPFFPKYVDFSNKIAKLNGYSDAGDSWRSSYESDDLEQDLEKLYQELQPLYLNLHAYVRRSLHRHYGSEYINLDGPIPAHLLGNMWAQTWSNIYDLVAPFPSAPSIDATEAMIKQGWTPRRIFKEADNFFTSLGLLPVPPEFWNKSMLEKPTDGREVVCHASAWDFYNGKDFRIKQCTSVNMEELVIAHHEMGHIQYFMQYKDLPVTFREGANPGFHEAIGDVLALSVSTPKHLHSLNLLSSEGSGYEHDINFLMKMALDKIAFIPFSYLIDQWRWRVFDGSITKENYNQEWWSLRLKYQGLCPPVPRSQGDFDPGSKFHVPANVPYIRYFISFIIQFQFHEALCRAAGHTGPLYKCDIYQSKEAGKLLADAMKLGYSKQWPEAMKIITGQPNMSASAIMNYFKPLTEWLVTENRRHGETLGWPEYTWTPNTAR
Protocol: as §1
At the end of the experiments the blood was collected from the right carotid. The heparinized blood samples were centrifuged at 1000 g for 20 min at 4° C. The plasma was stored at −20° C. until the ACE activity measurements.
The ACE activity was determined by a spectrophotometric method (Sigma) based on the enzymatic reaction catalysed by ACE, where the FAPGG was hydrolysed to FAP.
FAPGG hydrolysis produced a decrease in the absorbance at 340 nm, a marker of ACE activity in the sample. Results, reported in table 3, were expressed as U/L in heparinized plasma.

Compound	IC50 [1]	ACE activity (ACE)	Emax [1]	Bioavailability [2]	Elimination route (in words) [2]	Relaxation of aortic rings (in words) ([1]; any of the concentrations tested, curve not different from vehicle alone)	Arterial pressure (MAP) (SHR rats)	Reduction of blood pressure vs the control (SHR rats)
C[C@H](CSC(=O)OCCCCO[N+](=O)[O-])C(=O)N1CCC[C@H]1C(=O)O [Ex. 2, 1-[(2S)-3-(4-Nitrooxybutoxycarbonyl)mercapto-2-methyl-1-oxopropyl]-L-proline]	6 ± 0.87 µM	–	96.9 ± 1.87%	–	–	–	–	–
C[C@H](CS)C(=O)N1CCC[C@H]1C(=O)O [Captopril, 1-[(2S)-3-mercapto-2-methylpropionyl]-L-proline, reference compound]	–	–	0%	about 75%	most of the drug is eliminated in urine	did not produce relaxation	145 mmHg	–
C[C@H](CSC(=O)OCO[N+](=O)[O-])C(=O)N1CCC[C@H]1C(=O)O [Ex. 3, 1-[(2S)-3-(Nitrooxymethoxycarbonyl)mercapto-2-methyl-1-oxopropyl]-L-proline]	6.7 ± 0.84 µM	–	97.9 ± 1.51%	–	–	–	–	–

Second part, led by results:

IC50 [1]	ACE activity (ACE)	Compound	Emax [1]	Bioavailability [2]	Elimination route (in words) [2]	Relaxation of aortic rings (in words) ([1]; any of the concentrations tested, curve not different from vehicle alone)	Arterial pressure (MAP) (SHR rats)	Reduction of blood pressure vs the control (SHR rats)
3.2 ± 0.65 µM	–	CC(=O)SC[C@@H](C)C(=O)N1CCC[C@H]1C(=O)N[C@H](Cc1ccccc1)C(=O)Oc1cccc(CO[N+](=O)[O-])c1 [Ex. 9, 1-[(2S)-3-(Acetylthio)-2-methyl-1-oxopropyl]-L-prolyl-L-phenylalanine 3-nitrooxymethyl phenyl ester]	96.8 ± 0.65%	–	–	–	–	–
26.1 ± 3.91 µM	59 U/L	CC(=O)SC[C@@H](C)C(=O)N1CCC[C@H]1C(=O)OCCCO[N+](=O)[O-] [Ex. 8, 1-[3-(Acetylthio)-(2S)-methyl-1-oxopropyl]-L-proline 3-nitrooxypropyl ester]	77.9 ± 3.21%	–	–	–	132 mmHg	35%
4.01 ± 1.18 µM	53 U/L	CC(=O)SC[C@@H](C)C(=O)N1CCC[C@H]1C(=O)Oc1cccc(CO[N+](=O)[O-])c1 [Ex. 8b, 1-[3-(acetylthio)-(2S)-methyl-1-oxopropyl]-L-proline 3-nitrooxymethylphenyl ester]	92.4 ± 4.15%	–	–	–	116 mmHg	43%
